Test results as given in patent US11986464B2, “5HT3R antagonist for use in treating aneurysms and cardiovascular risk” (University of Kentucky Research Foundation, priority 2021, dated 2024).

Experiments:
[1] = system: AngII-infused XY male Ldlr−/− mice (XYM); assay: AngII-induced aortic pathology (DTA, AA) and aortic weights; type: in vivo; details: for mean weight of the aortas: 7 days then 28 days with AngII 1,000 ng/kg/min, ±SEM
Method: Tropisetron (Trop) is an exemplary 5HT3R antagonist used in these studies.^136 Effects of Trop were tested against AngII-induced aortic pathology in XY male Ldlr−/− mice (XYM). […] Mice were fed a Western diet (high fat, high sucrose, high cholesterol) beginning one week prior to the start of treatments. XYM Ldlr−/− mice were administered two different doses of Trop (10 or 20 mg/kg/day) by osmotic minipump for 7 days. The minipumps were then replaced with new pumps containing both AngII (1,000 ng/kg/min) and Trop and treatment was continued for 28 days. Aortas were removed from the iliac bifurcation to the end of the arch and fixed in formalin. Aortas were then cleaned and weighed.

[2] = system: AngII-infused XYM Ldlr−/− mice; assay: Ultrasound internal lumen diameters of abdominal aortas; type: in vivo; details: for average internal lumen diameter of abdominal aorta on Day 27: ultrasound, ±SEM, in mm (unit assumed)
Method: (§1) Male mice (XYM Ldlr−/−) were fed a Western diet (high fat, high sucrose, high cholesterol) beginning one week prior to the start of treatments. XYM Ldlr−/− mice were then administered two different doses of Trop (10 or 20 mg/kg/day) by osmotic minipump for 7 days. The minipumps were then replaced with new pumps containing both AngII (1,000 ng/kg/min) and Trop and treatment was continued for 28 days.
Internal lumen diameters of abdominal aortas from AngII treated mice treated with either dose of tropisetron were smaller than those from the AngII alone group after 27 days of treatment (FIG. 18). The average diameters on Day 27 were: AngII=1.77±0.35; Trop 10=1.32±0.23; Trop 20=1.20±0.28 (±SEM, *P<0.05 compared to AngII). The average diameters in all three groups increased from their baseline values with the AngII group having the largest increase followed by the Trop 20 and then Trop 10 group. […] An increase of 50% or more is considered an aneurysm.

[3] = system: AngII-infused XYM Ldlr−/− mice; assay: Incidence and grading of AngII-induced abdominal aortic aneurysms; type: in vivo; details: for mice with Abdominal Aneurysm Grade 0: 0 = no aneurysm; for mice with Abdominal Aneurysm Grade 4: 4 being a rupture
Method: as §1

[4] = system: AngII-infused XYM Ldlr−/− mice; assay: Systolic and diastolic blood pressure induced by AngII; type: in vivo; details: for mean systolic blood pressure: ±SEM
Method: as §1
Blood pressures were taken on five consecutive days. Measurements from the last three days were used to calculate blood pressures for each group. The mean systolic blood pressures are in mm Hg (±SEM): AngII=149±3.4; Trop 10=146±5.6; Trop 20=128±4.4. The mean diastolic blood pressures were in mm Hg: AngII=86±4.0; Trop 10=83±6.0; Trop 20=70±4.1 (FIG. 21).

[5] = system: AngII-infused XYM Ldlr−/− mice; assay: Maximal external diameters of excised abdominal aortas; type: in vivo; details: ±SEM
Method: as §1, with “28 days. External abdominal aortic diameters were quantified on excised, cleaned tissue mounted on a black wax background. A Nikon SMZ800 dissecting microscope was used to obtain aorta images and the maximal external diameter of the abdominal aorta was measured using Nikon NIS-Elements Version 5.2.” for “28 days.”

[6] = system: AngII-infused XYM Ldlr−/− mice; assay: Atherosclerosis quantified en face (aortic arch, thoracic aorta); type: in vivo
Method: as §1
Atherosclerosis was quantified en face in the aortic arch. Briefly, the entire length of the aorta was removed and the intimal surface exposed, in its entirety, by a longitudinal cut through the inner curvature of the aortic arch and down the anterior aspect of the remaining aorta. A cut is also made through the greater curvature of the aortic arch to the subclavian branch. The tissue is then pinned to a dark surface. Arch areas were defined by drawing a 3-mm line from the left subclavian artery. The intimal area of the aortic arch was defined as the region from the orifice of innominate artery to the orifice of the left subclavian artery. Thoracic areas were defined by drawing a 9 mm line from the end of the arch area to the diaphragm muscle. Atherosclerotic areas were quantified by drawing a line around the borders and summing the total area of each. Lesions were summed and divided by the total arch or thoracic area to calculate the percent lesion area. Measurements were performed using Nikon NIS-Elements Version 5.2.

[7] = system: AngII-infused XYM Ldlr−/− mice; assay: Serum cholesterol and triglycerides by enzymatic assay kits; type: in vivo; details: in mg/dL (unit assumed)
Method: Male mice (XYM Ldlr−/−) were fed a Western diet (high fat, high sucrose, high cholesterol) beginning one week prior to the start of treatments. XYM Ldlr−/− mice were then administered two different doses of Trop (10 or 20 mg/kg/day) by osmotic minipump for 7 days. The minipumps were then replaced with new pumps containing both AngII (1,000 ng/kg/min) and Trop and treatment was continued for 28 days. Concentrations of total serum cholesterol, triglycerides and free fatty acids were quantified (blood collected from cardiac puncture) using enzymatic assay kits.

[8] = system: AngII-infused XXF and XYM Ldlr−/− mice; details: nicotine 4 mg/kg/day co-infused with AngII 1,000 ng/kg/min
Method: (§2) Mice were fed a Western diet beginning one week prior to co-infusion of AngII (1,000 ng/kg/min) and nicotine (4 mg/kg/day^130). Ultrasound as used to quantify internal lumen diameters of AA to calculate the percentage of mice with pathology (50% increase compared to day 0 of infusions; FIG. 12A). […] Aortas were harvested for RNA extraction, and thus DTA maximal diameters could not be quantified at study endpoint.

Htr3a mRNA = details: nicotine co-infused with AngII, compared to AngII
Method: as §2
To define potential mechanisms for these effects, and whether they are linked to 5HT3R, Htr3a mRNA abundance was quantified in DTA and AA of XXF and XYM AngII-infused mice.

[9] = Trop 10 or 20 mg/kg/day, compared to AngII alone

`CN1[C@@H]2CC[C@H]1C[C@@H](OC(=O)c1c[nH]c3ccccc13)C2` [Trop] was tested, and the “mean weight of the aortas” value ([1]; Trop 10 mg/kg/day by osmotic minipump) was 0.035 g, the “mean weight of the aortas” value ([1]; Trop 20 mg/kg/day by osmotic minipump) was 0.023 g and the “percentage of AngII-induced pathology of AA” value [1, 9] was “dose-dependent reduction”. For the same compound, the “percentage of AngII-induced pathology of DTA” value [1, 9] was “dose-dependent reduction”, the “average internal lumen diameter of abdominal aorta on Day 27” value ([2]; Trop 10 mg/kg/day) was 1.32±0.23 and the “percent increase in abdominal aorta diameters on Day 27 compared to Day 0” value ([2]; Trop 20 mg/kg/day, compared to AngII, P<0.05) was “significantly different”. The “average internal lumen diameter of abdominal aorta on Day 27” value ([2]; Trop 20 mg/kg/day) was 1.20±0.28, the “% Incidence of abdominal aneurysms” value ([3]; Trop 10 mg/kg/day) was 30% and the “mice with Abdominal Aneurysm Grade 1” value ([3]; Trop 10 mg/kg/day) was 3. For the same compound, the “mice with Abdominal Aneurysm Grade 2” value ([3]; Trop 10 mg/kg/day) was 0, the “mice with Abdominal Aneurysm Grade 3” value ([3]; Trop 10 mg/kg/day) was 0 and the “mice with Abdominal Aneurysm Grade 0” value ([3]; Trop 10 mg/kg/day) was 7. For the same compound, the “mice with Abdominal Aneurysm Grade 4” value ([3]; Trop 10 mg/kg/day) was 0, the “% Incidence of abdominal aneurysms” value ([3]; Trop 20 mg/kg/day) was 20% and the “mice with Abdominal Aneurysm Grade 1” value ([3]; Trop 20 mg/kg/day) was 0. For the same compound, the “mice with Abdominal Aneurysm Grade 2” value ([3]; Trop 20 mg/kg/day) was 1, the “mice with Abdominal Aneurysm Grade 3” value ([3]; Trop 20 mg/kg/day) was 0 and the “mice with Abdominal Aneurysm Grade 0” value ([3]; Trop 20 mg/kg/day) was 8. For the same compound, the “mice with Abdominal Aneurysm Grade 4” value ([3]; Trop 20 mg/kg/day) was 1, the “mean diastolic blood pressure” value ([4]; Trop 10 mg/kg/day) was 83±6.0 mm Hg and the “mean systolic blood pressure” value ([4]; Trop 10 mg/kg/day) was 146±5.6 mm Hg. The “mean diastolic blood pressure” value ([4]; Trop 20 mg/kg/day) was 70±4.1 mm Hg, the “mean systolic blood pressure” value ([4]; Trop 20 mg/kg/day) was 128±4.4 mm Hg and the “mean external diameter of abdominal aorta” value ([5]; Trop 10 mg/kg/day) was 1.08±0.13 mm. For the same compound, the “mean external diameter of abdominal aorta” value ([5]; Trop 20 mg/kg/day) was 0.87±0.11 mm, the “atherosclerosis (percent lesion area) in the thoracic aortas” value ([6]; tropisetron 10 mg/kg/day) was 14.14±6.4% and the “percent lesion surface area of the aortic arch” value ([6]; tropisetron 10 mg/kg/day) was 14.92±5.3%. For the same compound, the “atherosclerosis (percent lesion area) in the thoracic aortas” value ([6]; tropisetron 20 mg/kg/day) was 7.43±7.95%, the “percent lesion surface area of the aortic arch” value ([6]; tropisetron 20 mg/kg/day) was 4.24±3.5% and the serum cholesterol level ([7]; Trop 10 mg/kg/day) was 1683±109.5. For the same compound, the serum triglyceride level ([7]; Trop 10 mg/kg/day) was 652±73.6, the serum cholesterol level ([7]; Trop 20 mg/kg/day) was 1437±46.7 and the serum triglyceride level ([7]; Trop 20 mg/kg/day) was 549±54.4.
`CN1CCCC1c1cccnc1` (stereo not drawn) [nicotine] was tested, and the “percentage of mice with pathology within the AA (50% increase in internal lumen diameter compared to day 0)” value [8] was 50%, the “Htr3a mRNA abundance in AA” value (Htr3a mRNA; XXF and XYM mice) was “significant increase” and the “Htr3a mRNA abundance in DTA” value (Htr3a mRNA) was “no effect”.
